Patent publication US7692012B2, “Vanadium compounds as inhibitors of phosphatases” (Imperial College Innovations Limited, priority 2003, dated 2010)
Like-named read-outs stand apart in the source and are kept apart here.

Key:
[1] = test system: PKB phosphorylation (pSer473) in NIH3T3 cells; test: Ly294002 dose dependence with and without bpV(pic); assay type: cell-based; conditions: NIH3T3, 10 μg/ml insulin, without bpV(pic)
Protocol: In order to find out whether bpV(pic) has an influence on Ly294002-dependent PKB inhibition we accomplished a dose response experiment applying concentrations from 0.01 up to 100 μM Ly294002 to two sets of quiescent fibroblasts and incubated for 20 min. One batch of cells were then further treated with 200 nM bpV(pic) (5 min) and all cells were finally stimulated with 10 μg/ml insulin for 15 min. Cell lysates were collected as described earlier. Calculations and graph were performed using GraphPad Prism.
(§1) All cell lysate samples were loaded on 10% SDS-PAGE and transferred to PVDF membranes for PKB analysis and nitrocellulose for phospho tyrosine detection. For PKB Western Blots membranes were blocked for 1 h with 5% milk powder in TBST followed by an incubation with anti Mass PKB antibody (1:1000) or anti phospho-PKB (Ser473) antibody (1:1000) in TBST for 2 h. Finally, membranes were exposed to a horseradish peroxidase-conjugated secondary antiserum (BIORAD) (1:1000) in 5% milk powder solution for 1 h. The Western Blots were developed with ECL™ solution (Amersham). In order to detect phosphorylated tyrosine residues nitrocellulose membranes were blocked for 1 h with 2.5% milk powder, first incubated with a specific anti phosphotyrosine antibody (4G10) (1:3000) for 1 h, and finally with horseradish peroxidase-conjugated secondary anti mouse antiserum. All PKB and Phospho-Tyrosine experiments were accomplished in three independent experiments and all membranes were re-probed using a specific tubulin antibody (1:1000). Density analysis of bands took place using the public domain NIH Image V1.62 program (developed at the U.S. National Institutes of Health and available on the Internet at http://rsb.info.nih.gov/nih-image/).

[2] = molecular target: T1, PTEN (Homo sapiens, UniProt P60484); test: Malachite green phosphate release assay with PI(3,4,5)P3; assay type: biochemical; conditions: for IC50: head says published data, same values as the applicant's FIG. 1 study, read-out: PTEN Published data In vitro enzyme assay confirmed by in vivo data
T1 construct: GST (N); made in house; host or cells: Escherichia coli DH5 alpha
Protocol: The coding region of the DNA sequence of human PTEN was cloned into a pGEX-4T2 expression vector (Pharmacia). Protein expression was induced overnight in the Escherichia coli DH5[…] strain using 100 μM IPTG at 18 C. GST-fusion proteins were purified according to the manufacturer's manual using glutathione sepharose 4B (Pharmacia). Protein integrity and specificity were confirmed on a Western Blot using GST antibody (Novagen).
Enzyme activity of recombinant PTEN was measured with a malachite green dye based phosphate release assay (No 230, No 83). The standard assay conditions were 200 mM Tris pH 7.4, 50 ng/μl BSA, and 15 ng/μl PTEN. The synthetic lipid PI(3,4,5)P3dC16 (Cell Signals) was used as a substrate for PTEN. The lipid was dissolved in methanol/H2O and stored at −20 C. Prior to the use in these PIPase experiments, an appropriate amount of lipid was dried down and resuspended in 1% Octylglycoside (Sigma). After 10 min of sonication lipid samples were ready to be added to the enzyme assay. All assays were started by adding the enzyme into the pre-heated buffer solution, containing PI(3,4,5)P3dC16. Linear PIPase reactions were performed at 30 C for 30 min in an incubation chamber. In order to stop the enzyme reaction, 0.7 volume of colour reagent (2.3 mg/ml malachite green in 3.6 M HCl and 17 mM ammonium molybdate) was added to the enzyme solution. The mixture was allowed to develop for 20 min and the absorbance at 625 nm was measured. For all inhibitor studies inhibitor concentrations from 0.1 nM up to 500 nM were pre-incubated with PTEN and the enzyme assays were started by adding 150 μM sonicated lipid. To normalize the phosphate release a phosphate standard curve was used. All experiments were repeated in tripletts. Calculations for IC50 values were performed using GraphPad Prism.

[3] = molecular target: SopB (Salmonella typhimurium, UniProt O30916); test: biochemical; assay type: biochemical; conditions: read-out: IC50 SopB
[4] = molecular target: T2, MTM (Homo sapiens, UniProt Q13496); test: MTM IC50 (inositol phosphatase inhibition); assay type: biochemical
T2 sequence (Q13496 1-603): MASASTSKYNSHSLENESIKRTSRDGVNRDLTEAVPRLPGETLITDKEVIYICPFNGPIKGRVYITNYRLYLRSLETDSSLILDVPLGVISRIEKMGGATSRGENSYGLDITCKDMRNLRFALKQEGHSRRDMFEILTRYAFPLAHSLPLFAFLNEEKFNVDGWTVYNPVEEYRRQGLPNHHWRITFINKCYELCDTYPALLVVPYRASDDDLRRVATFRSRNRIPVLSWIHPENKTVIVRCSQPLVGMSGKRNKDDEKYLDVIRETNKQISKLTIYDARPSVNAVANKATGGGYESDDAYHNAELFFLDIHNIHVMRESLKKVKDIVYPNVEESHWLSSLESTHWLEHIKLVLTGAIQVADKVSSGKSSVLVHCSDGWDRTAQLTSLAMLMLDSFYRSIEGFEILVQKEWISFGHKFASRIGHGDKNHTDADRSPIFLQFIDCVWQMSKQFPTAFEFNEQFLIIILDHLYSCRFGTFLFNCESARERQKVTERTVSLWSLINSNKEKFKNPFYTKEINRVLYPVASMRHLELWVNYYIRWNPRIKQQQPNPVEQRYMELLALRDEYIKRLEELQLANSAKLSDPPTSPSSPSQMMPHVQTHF

[5] = molecular target: T3, PTP-β (Homo sapiens, UniProt P23467); test: PTPase assay with pNPP as substrate; assay type: biochemical
T3 construct: purchased Upstate Biotechnology
Protocol: Protein tyrosine phosphatase (PTPase) assays were performed using the synthetic substrate p-nitrophenylphosphate (pNPP) and the phosphatases PTP-1B and PTP-β (Upstate Biotechnology). The standard assay conditions were 25 mM HEPES pH 7.2, 50 mM NaCl, 5 mM DTT, 2.5 mM EDTA, 100 μg/ml BSA, 1 mM pNPP (Sigma) and 4 unit PTP-1B and 10 unit PTP-β, respectively. The assay was started by adding the enzyme and was carried out for 15 min at 30 C in a preheated ELISA reader chamber. The linear increase of absorbance was monitored every 30 seconds at a wavelength of 410 nm.

[6] = test system: PKB phosphorylation (pSer473) in NIH3T3 cells; test: PKB assay: activation of insulin signalling pathway (insulin mimetic property), NIH3T3; assay type: cell-based; conditions: NIH3T3, 1 μM, 15 min, no insulin
Protocol: (§2) NIH3T3 cells (passage 5-20) were grown in 10% NCS D-MEM (GIBCO BRL) in 6-well plates at 37 C and 5% CO2. Starvation of the cells was carried out over 72 h in D-MEM containing 0.5% NCS. Prior use medium was changed to 0% D-MEM. UM-UC-3 cells which is a PTEN^− bladder tumour cell line (NO 195, No 196) were grown in 10% MEM (GIBCO BRL), starved with 0.5% MEM also for three days and finally incubated with serum free MEM.
Cells were washed once with PBS and lysed using 80 μl SDS-PAGE buffer (250 mM Tris pH 6.8, 20% glycerol, 4% SDS, 0.01% bromphenol blue, 50 mM mercaptoethanol). Samples were boiled for 15 min and stored at −20 C until analysis on Western Blots as described in the last paragraph.
as §1

[7] = molecular target: T4, PTEN (Mus musculus, UniProt O08586); test: PTEN preliminary data (western blots); assay type: cell-based
T4 construct: endogenous in cells; host or cells: NIH3T3
Protocol: (§3) UM-UC-3 cells were treated in exactly the same manner. Cell samples were analysed on Western Blots with PKB antibodies.
as §1

[8] = molecular target: T4, PTEN; test: PKB assay: dose dependence of PTEN inhibition in insulin-stimulated NIH3T3 cells (pSer473 Western blot); assay type: cell-based; conditions: for increase of PKB phosphorylation in comparison with the control: 20 nM compound, control 0.5 μg/ml insulin
Protocol: as §2, §3, §1

[9] = test system: NIH3T3 cells; test: Phalloidin staining (actin re-arrangement, morphology); assay type: cell-based; conditions: 0.1 μM, 6 h and 24 h
Protocol: In order to monitor morphological changes NIH3T3 cells were grown on 8-well chamber slides and incubated with concentrations of bpV(pic) and bpV(phen) between 0.1 and 10 μM for 6 h and 24 h, respectively. Fibroblasts were fixed with 4% para-formaldehyde (PFA), permeabilised with 0.2% Triton and blocked with 10% NCS (newborn calf serum). To stain actin filaments cells were incubated with TRITC-phalloidin (Sigma) (1:1000) for 1 h. Finally, nuclei were DAPI (Sigma) stained and mounted. Morphological analyses were assessed on a microscope using filters for TRITC and DAPI and pictures were captured using a camera.

[10] = test system: phosphorylation of tyrosine residues in NIH3T3 cells; test: Phosphotyrosine assay with NIH3T3 cells; assay type: cell-based; conditions: 10 μM, 15 min
Protocol: NIH3T3 cells were grown and starved as described earlier. After 72 h starvation cells were incubated for 15 min with 10% NCS, 50, 10 and […] insulin (Sigma), 10, 1, 0.1 and 0.01 μM bpV(pic) and bpV(phen), respectively. Cell lysates were prepared as described above and all samples were analysed on Western Blots using an anti phospho-tyrosine antibody (Upstate).
as §1

SopB, sequence (O30916 whole entry): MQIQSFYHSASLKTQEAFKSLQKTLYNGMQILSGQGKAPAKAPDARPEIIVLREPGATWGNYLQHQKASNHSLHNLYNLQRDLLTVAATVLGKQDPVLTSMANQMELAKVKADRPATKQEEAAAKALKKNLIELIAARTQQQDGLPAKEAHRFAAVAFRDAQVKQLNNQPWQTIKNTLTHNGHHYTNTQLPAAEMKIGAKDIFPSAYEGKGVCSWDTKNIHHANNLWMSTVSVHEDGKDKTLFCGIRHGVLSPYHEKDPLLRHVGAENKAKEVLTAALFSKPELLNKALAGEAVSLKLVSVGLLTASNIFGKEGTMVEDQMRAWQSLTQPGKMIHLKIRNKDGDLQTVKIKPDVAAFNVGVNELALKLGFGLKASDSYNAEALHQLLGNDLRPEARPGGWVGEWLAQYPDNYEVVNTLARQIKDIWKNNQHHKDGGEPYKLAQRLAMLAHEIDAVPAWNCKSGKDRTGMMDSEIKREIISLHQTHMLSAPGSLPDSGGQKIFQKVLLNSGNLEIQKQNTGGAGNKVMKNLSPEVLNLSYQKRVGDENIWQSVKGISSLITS
T4 sequence (O08586 whole entry): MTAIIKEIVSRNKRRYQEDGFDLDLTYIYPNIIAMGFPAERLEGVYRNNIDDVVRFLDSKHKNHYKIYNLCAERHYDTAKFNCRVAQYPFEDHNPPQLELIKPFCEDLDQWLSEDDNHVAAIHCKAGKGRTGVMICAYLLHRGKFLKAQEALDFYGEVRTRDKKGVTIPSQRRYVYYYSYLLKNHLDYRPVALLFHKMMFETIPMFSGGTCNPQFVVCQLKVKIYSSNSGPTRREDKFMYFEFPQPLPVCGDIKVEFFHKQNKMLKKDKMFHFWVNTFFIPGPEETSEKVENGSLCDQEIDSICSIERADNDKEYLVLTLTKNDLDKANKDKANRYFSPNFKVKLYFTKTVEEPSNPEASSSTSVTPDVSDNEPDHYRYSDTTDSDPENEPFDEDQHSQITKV
T1 sequence (P60484 whole entry): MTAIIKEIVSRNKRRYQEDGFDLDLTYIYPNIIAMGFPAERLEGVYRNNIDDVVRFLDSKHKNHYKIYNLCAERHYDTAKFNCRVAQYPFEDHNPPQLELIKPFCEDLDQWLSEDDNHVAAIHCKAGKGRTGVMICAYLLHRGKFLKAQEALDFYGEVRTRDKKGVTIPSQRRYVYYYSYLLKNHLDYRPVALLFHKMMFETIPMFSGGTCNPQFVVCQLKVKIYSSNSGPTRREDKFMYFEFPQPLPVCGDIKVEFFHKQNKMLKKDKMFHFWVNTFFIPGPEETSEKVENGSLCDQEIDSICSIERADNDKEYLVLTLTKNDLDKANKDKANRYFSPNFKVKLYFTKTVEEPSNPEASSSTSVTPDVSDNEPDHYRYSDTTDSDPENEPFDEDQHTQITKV
T3 sequence (P23467 23-1997): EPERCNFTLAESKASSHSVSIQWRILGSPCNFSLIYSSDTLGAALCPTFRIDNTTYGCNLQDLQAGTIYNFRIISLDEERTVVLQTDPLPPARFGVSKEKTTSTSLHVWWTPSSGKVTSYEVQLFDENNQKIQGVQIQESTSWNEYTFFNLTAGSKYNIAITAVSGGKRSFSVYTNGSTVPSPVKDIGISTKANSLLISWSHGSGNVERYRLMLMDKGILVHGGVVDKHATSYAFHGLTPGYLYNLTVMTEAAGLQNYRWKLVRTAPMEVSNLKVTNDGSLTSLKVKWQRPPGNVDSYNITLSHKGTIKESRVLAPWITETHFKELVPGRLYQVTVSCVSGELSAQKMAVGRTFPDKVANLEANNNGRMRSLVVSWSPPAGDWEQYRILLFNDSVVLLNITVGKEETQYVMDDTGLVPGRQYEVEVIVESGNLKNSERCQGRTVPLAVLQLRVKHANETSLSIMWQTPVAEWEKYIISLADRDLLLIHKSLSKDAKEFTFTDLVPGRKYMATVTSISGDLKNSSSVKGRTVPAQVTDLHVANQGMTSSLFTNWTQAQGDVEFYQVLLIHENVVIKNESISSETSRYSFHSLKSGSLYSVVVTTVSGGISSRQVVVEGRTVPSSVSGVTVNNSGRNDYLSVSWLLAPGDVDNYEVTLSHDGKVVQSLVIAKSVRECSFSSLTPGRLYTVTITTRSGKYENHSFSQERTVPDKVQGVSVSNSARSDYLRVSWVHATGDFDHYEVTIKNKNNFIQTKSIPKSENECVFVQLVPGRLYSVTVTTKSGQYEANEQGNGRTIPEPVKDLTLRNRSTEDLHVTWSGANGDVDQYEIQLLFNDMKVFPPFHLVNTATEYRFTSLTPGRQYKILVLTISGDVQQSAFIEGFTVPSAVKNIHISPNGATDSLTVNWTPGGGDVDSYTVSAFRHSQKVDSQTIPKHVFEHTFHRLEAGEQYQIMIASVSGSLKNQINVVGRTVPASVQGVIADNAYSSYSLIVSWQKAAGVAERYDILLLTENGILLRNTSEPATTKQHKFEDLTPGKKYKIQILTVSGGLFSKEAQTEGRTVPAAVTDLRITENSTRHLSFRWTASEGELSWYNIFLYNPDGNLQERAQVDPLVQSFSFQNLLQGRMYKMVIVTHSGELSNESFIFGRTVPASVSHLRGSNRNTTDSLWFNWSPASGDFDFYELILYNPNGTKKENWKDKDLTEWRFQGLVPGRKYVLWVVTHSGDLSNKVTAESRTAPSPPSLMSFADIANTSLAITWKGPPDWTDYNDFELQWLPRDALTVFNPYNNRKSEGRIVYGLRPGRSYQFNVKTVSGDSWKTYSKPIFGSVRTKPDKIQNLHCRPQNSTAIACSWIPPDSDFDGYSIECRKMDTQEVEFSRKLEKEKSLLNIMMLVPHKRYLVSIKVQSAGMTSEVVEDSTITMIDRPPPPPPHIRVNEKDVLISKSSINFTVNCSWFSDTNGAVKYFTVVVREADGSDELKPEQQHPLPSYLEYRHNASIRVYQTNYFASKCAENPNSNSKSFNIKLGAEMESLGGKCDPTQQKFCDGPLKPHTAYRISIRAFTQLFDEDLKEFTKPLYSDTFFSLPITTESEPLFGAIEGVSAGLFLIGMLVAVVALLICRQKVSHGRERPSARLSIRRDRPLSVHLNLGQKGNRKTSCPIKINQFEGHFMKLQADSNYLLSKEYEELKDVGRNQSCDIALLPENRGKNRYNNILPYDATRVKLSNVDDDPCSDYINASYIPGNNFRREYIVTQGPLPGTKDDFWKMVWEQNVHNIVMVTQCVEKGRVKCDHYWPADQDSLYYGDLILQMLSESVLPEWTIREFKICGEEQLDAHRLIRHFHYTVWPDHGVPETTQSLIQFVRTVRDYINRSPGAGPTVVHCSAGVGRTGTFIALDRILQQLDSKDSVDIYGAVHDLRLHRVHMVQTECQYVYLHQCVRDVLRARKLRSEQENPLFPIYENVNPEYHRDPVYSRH

With `O=c1cc(N2CCOCC2)oc2c(-c3ccccc3)cccc12` [Ly294002, reference compound] the “concentration sufficient to inhibit PKB activation completely” value [1] was 5 µM.

With `O=C([O-])c1ncccc1O.O=C([O-])c1ncccc1O.[O]=[V+2]` [OHpic4] the “PTEN inhibition, summary in words” value ([2]; comment below PTEN table) was “very good inhibitors”, the IC50 ([3]; +IV compound) was 588 ± 163 nM and the IC50 ([4]; Compound(+IV)) was 4030 ± 40 nM. The IC50 ([5]; V(+IV) compounds) was 57500 ± 9400 nM.

With `O=C([O-])c1ccc(O)cn1.[K+].[K+].[O-2].[O-][O-].[O-][O-].[V+5]` [bpV(HOpic), dipotassium bisperoxo(5-hydroxypyridine-2-carboxyl)oxovanadatel] the “phosphorylated PKB signal” value [6] was “weak signal”, the IC50 [7] was 211 nM and the “specificity of phosphatase inhibition” value ([2]; PTEN versus SopB, MTM, PTP) was “specifically inhibit PTEN, but not SopB, MTM or PTP”. It also gave an IC50 [2] of 14 ± 2.3 nM, an IC50 ([3]; +V compound) of 33.2 ± 6.5 nM and an IC50 ([4]; Compound(+V)) of 346 ± 24.8 nM. For the same compound, the “increase of PKB phosphorylation in comparison with the control” value [8] was “about 20%” and the IC50 ([8]; NIH3T3, 5 min compound then 0.5 μg/ml insulin 15 min, read-out: IC50 (in vivo PTEN inhibition, densitometry of pSer473 PKB)) was 96 nM.

`[K+].[O-][O-].[O-][O-].[O]=[V+3].c1ccc(-c2ccccn2)nc1` [bpV(bipy), potassium bisperoxo (bipyridine) oxovanadate] was tested, and the “phosphorylated PKB signal” value [6] was “weak signal”, the “increase of PKB phosphorylation in comparison with the control” value [8] was “about 20%” and the IC50 ([5]; aromatic bpVs, pNPP substrate) was 60.3 nM.

For `O.O.O.OO.OO.[K+].[OH-].[V].c1cnc2c(c1)ccc1cccnc12` [bpV(phen), potassium bisperoxo(1,10-phenanthroline)oxovanadate], the “cellular morphology (actin staining)” value [9] was “remained unchanged”, the “phosphorylated PKB signal” value [6] was “no phosphorylation was visible” and the IC50 [7] was 275 nM. For the same compound, the IC50 [2] was 38 ± 2.4 nM, the IC50 ([3]; +V compound) was 102 nM and the IC50 ([4]; Compound(+V)) was 407 ± 38.5 nM. The tyrosine phosphorylation [10] was “lower stimulation”.
